Source: US8778894B2, “Luteolin and diosmin/diosmetin as novel STAT3 inhibitors for treating autism” (University of South Florida, priority 2008, dated 2014)

Tests used:
[1] = tested on: IL-6 induced JAK2 phosphorylation; assay: JAK2 phosphorylation in brain homogenates of IL-6/MIA newborn mice, Western blot; assay type: in vivo; conditions: dams IL-6 5 μg i.p. at E12.5; S31-201 4 μg i.p. or diosmin 10 mg/kg/day oral; vs IL-6 only, P<0.005
Method: (§1) Cultured cells were lysed in ice-cold lysis buffer (20 mM Tris, pH 7.5, 150 mM NaCl, 1 mM EDTA, 1 mM EGTA, 1% v/v Triton X-100, 2.5 mM sodium pyrophosphate, 1 mM β-glycerolphosphate, 1 mM Na3VO4, 1 μg/mL leupeptin, 1 mM PMSF) as described previously (Tan et al. 2002). Mouse brains were isolated under sterile conditions on ice and placed in ice-cold lysis buffer. Brains were then sonicated on ice for approximately 3 min, allowed to stand for 15 min at 4° C., then centrifuged at 15,000 rpm for 15 min at 4° C. Total protein content was estimated using the BCA protein assay (Pierce Biotechnology) and aliquots corresponding to 100 μg of total protein were electrophoretically separated using 10% Tris gels. Electrophoresed proteins were then transferred to nitrocellulose membranes (Bio-Rad, Richmond, Calif.), washed in Tris buffered saline with 0.1% Tween-20 (TBS/T), and blocked for 1 h at ambient temperature in TBS/T containing 5% (w/v) non-fat dry milk. After blocking, membranes were hybridized overnight at 4° C. with various primary antibodies. Membranes were then washed 3× for 5 min each in TBS/T and incubated for 1 h at ambient temperature with the appropriate HRP-conjugated secondary antibody (1:1000, Pierce Biotechnology). […] Densitometric analysis was conducted using a FluorS Multiimager with Quantity One™ software (Bio-Rad, Hercules, Calif.). […]

[2] = tested on: IL-6 induced STAT3 phosphorylation; assay: STAT3 phosphorylation in brain homogenates of IL-6/MIA newborn mice, Western blot; assay type: in vivo; conditions: dams IL-6 5 μg i.p. at E12.5; S31-201 4 μg i.p. or diosmin 10 mg/kg/day oral; vs IL-6 only, P<0.005
Method: as §1

[3] = tested on: TNF-α; assay: TNF-α ELISA in brain homogenates of IL-6/MIA newborn mice; assay type: in vivo; conditions: dams IL-6 5 μg i.p.; S31-201 4 μg i.p. or diosmin 10 mg/kg/day oral; P<0.01
Method: (§2) Mouse brain homogenates were prepared as described above and used at a dilution of 1:10 in PBS for these assays. Brain tissue-solubilized cytokines were quantified using commercially available ELISAs that allow for detection of IL-1β, and TNF-α. Cytokine detection was carried out according to the manufacturer's instruction. Total protein content was determined as described above and data represented as pg of cytokine/mg total cellular protein for each cytokine.
(§3) Pro-inflammatory cytokine analysis by ELISA was conducted on these newborn mouse brain homogenates. Data are represented as mean±SD of each cytokine in brain homogenates (pg/mg total protein) from these newborn mice.

[4] = tested on: IL-1β; assay: IL-1β ELISA in brain homogenates of IL-6/MIA newborn mice; assay type: in vivo; conditions: dams IL-6 5 μg i.p.; S31-201 4 μg i.p. or diosmin 10 mg/kg/day oral; P<0.01
Method: as §2, §3

[5] = tested on: IL-6/MIA adult offspring; conditions: for open-field test, entries into the center: adult offspring of IL-6 treated dams co-treated with S31-201 4 μg i.p. or diosmin 10 mg/kg/day oral, P<0.01
Method: Pregnant C57BL/6 mice, embryonic day 2 (E2) were obtained from Jackson Laboratory (Bar Harbor, […].) and individually housed and maintained in an animal facility of the University of South Florida (USF). All subsequent experiments were performed in compliance with protocols approved by the USF Institutional Animal Care and Use Committee. […] Intraperitoneal PBS injection (200 μL) was used as the control for IL-6 administration. Open field (OF)—The OF behavioral analysis is a test of both locomotor activity and emotionality in rodents (Radyushkin et al. 2009). Mice were placed in a 50×50 cm white Plexiglas box brightly lit by fluorescent room lighting and six 60 W incandescent bulbs approximately 1.5 m above the box. Activity was recorded by a ceiling-mounted video camera and analyzed from digital video files either by the automated tracking capabilities of Ethovision or counted using the behavior tracker (version 1.5, www.behaviortracker.com), a software-based event-recorder. The total distance moved and numbers of entries into the center of the arena (central 17 cm square) were determined in a 10 minute session. […] We also treated control mice (non-IL-6 treated) with the STAT3 inhibitor, S31. […] (10 mg/kg/day)]. […] Heightened anxiety and social interaction deficits are hallmarks of schizophrenia and autism. Reluctance to enter the center portion of a well-lit open field is usually taken as a measure of heightened anxiety under mildly stressful conditions (Smith et al., 2007).

[6] = tested on: IL-6/MIA adult offspring; assay: Social interaction test in IL-6/MIA adult offspring; assay type: in vivo, mice; conditions: for social interaction test, sniffing time: maternal S31-201 or diosmin vs IL-6/MIA, P<0.05; for social interaction test, social impairment (preference for the social chamber): maternal co-treatment with S31-201 4 μg i.p. or diosmin 10 mg/kg/day oral, P<0.005
Method: Pregnant C57BL/6 mice, embryonic day 2 (E2) were obtained from Jackson Laboratory (Bar Harbor, […].) and individually housed and maintained in an animal facility of the University of South Florida (USF). All subsequent experiments were performed in compliance with protocols approved by the USF Institutional Animal Care and Use Committee. […] Intraperitoneal PBS injection (200 μL) was used as the control for IL-6 administration. Social interaction (SI)—The testing apparatus consisted of a 60×40 cm Plexiglas box divided into three chambers. Mice were able to move between chambers through a small opening (6×6 cm) in the dividers. Plastic cylinders in each of the two side chambers contained the probe mice, and numerous 1 cm holes in the cylinders enabled test and probe mice to contact each other. Test mice were placed in the center chamber, with an overhead camera recording their movements. Mice were allowed 5 min of exploration time in the box, after which an unfamiliar, same-sex probe mouse from the same experimental group was placed in one of two restraining cylinders (Radyushkin et al. 2009). The Ethovision software (Noldus, Leesburg, Va.) program measured time spent in each of the three chambers, and social preference was defined as follows: (% time spent in the social chamber)−(% time spent in the opposite chamber). […] We also treated control mice (non-IL-6 treated) with the STAT3 inhibitor, S31. […] (10 mg/kg/day)]. […] Heightened anxiety and social interaction deficits are hallmarks of schizophrenia and autism. Reluctance to enter the center portion of a well-lit open field is usually taken as a measure of heightened anxiety under mildly stressful conditions (Smith et al., 2007).

[7] = tested on: TNF-α; assay: TNF-α ELISA in brain homogenates of IL-6/MIA adult offspring; assay type: in vivo, mice; conditions: maternal co-treatment with S31-201 or diosmin vs IL-6 only; P<0.05
Method: as §2
(§4) At sacrifice, brain homogenates were prepared from offspring of mice treated with IL-6, IL-6/S31-201, IL-6/Diosmin or PBS (control) (n=8, 4 female/4 male). Pro-inflammatory cytokine analysis by ELISA was conducted on these mouse brain homogenates. Data are represented as mean±SD of each cytokine in brain homogenates (pg/mg total protein) from these mice.

[8] = tested on: IL-1β; assay: IL-1β ELISA in brain homogenates of IL-6/MIA adult offspring; assay type: in vivo, mice; conditions: maternal co-treatment with S31-201 or diosmin vs IL-6 only; P<0.05
Method: as §2, §4

[9] = tested on: STAT3 phosphorylation (Ser727); assay: STAT3 phosphorylation in brain homogenates of IL-6/MIA adult offspring, Western blot; assay type: in vivo, mice; conditions: maternal co-treatment with S31-201 or diosmin vs IL-6 only; P<0.005
Method: as §1

[10] = after intestinal transformation of diosmin to diosmetin and absorption; cited from earlier work
[11] = tested on: STAT3 activation/phosphorylation induced by IL-6; assay: STAT3 activation induced by IL-6 in cultured neuronal cells (PC12 and N2a), Western blot; assay type: cell-based; conditions: dose-dependent
[12] = 500-2,000 mg per day orally for up to one year; cited from earlier work
[13] = tested on: IL-6 induced JAK2 phosphorylation; assay: IL-6 induced JAK2 phosphorylation in N2a and primary neuronal cells, Western blot; assay type: cell-based, murine; conditions: IL-6 50 ng/mL, 30 min
Method: (§5) Cerebral cortices were isolated from C57BL/6 mouse embryos, between 15 and 17 days in utero. After 15 min of incubation in trypsin (0.25%) at 37° C., individual cortices were mechanically dissociated. Cells were collected after centrifugation at 1200 rpm, resuspended in DMEM supplemented with 10% fetal calf serum, 10% horse serum, uridine ([…]; Sigma) and fluorodeoxyuridine ([…]; Sigma), and plated in 24 well collagen coated culture plates at a density of 2.5×10^5 cells per well.
(§6) N2a (murine neuroblastoma) cells, purchased from the American Type Culture Collection (ATCC, Manassas, Va.) were grown in complete EMEM supplemented with 10% fetal calf serum. Cells were plated in 24 well collagen coating culture plates at a density of 1×10^5 cells per well. After overnight incubation, N2a cells were incubated in neurobasal media supplemented with 3 mM dibutyryl cAMP in preparation for treatment. […]
(§7) Cultured cells were lysed in ice-cold lysis buffer (20 mM Tris, pH 7.5, 150 mM NaCl, 1 mM EDTA, 1 mM EGTA, 1% v/v Triton X-100, 2.5 mM sodium pyrophosphate, 1 mM β-glycerolphosphate, 1 mM Na3VO4, 1 μg/mL leupeptin, 1 mM PMSF) as described previously (Tan et al. 2002). […] Densitometric analysis was conducted using a FluorS Multiimager with Quantity One™ software (Bio-Rad, Hercules, Calif.). […]

[14] = tested on: IL-6 induced STAT3 phosphorylation (Ser727); assay: IL-6 induced STAT3 phosphorylation in N2a and primary neuronal cells, Western blot; assay type: cell-based, murine; conditions: IL-6 50 ng/mL, 30 min
Method: as §5, §6, §7

[15] = dose dependent, N2a and primary neurons

Structure (SMILES) | IL-6 induced JAK2 phosphorylation in newborn brain homogenates [1] | IL-6 induced STAT3 phosphorylation in newborn brain homogenates [2] | reduction of the IL-6 induced increase in TNF-α level, newborn brain homogenates [3] [%] | reduction of the IL-6 induced increase in IL-1β level, newborn brain homogenates [4] [%] | open-field test, entries into the center [5] | open-field behaviour, inhibitor-treated control (non-IL-6 injected) mice vs PBS-treated mice ([5]; mouse, in vivo) | social interaction test, sniffing time [6] | social interaction test, social impairment (preference for the social chamber) [6] | TNF-α cytokine level in adult offspring brain homogenates [7] | IL-1β cytokine level in adult offspring brain homogenates [8] | STAT3 phosphorylation in adult offspring brain homogenates [9] | plasma half-life [10] [h] | inhibition of activation/phosphorylation of STAT3 induced by IL-6 [11] | safety and tolerability in clinical trials [12] | concentration at which significant reductions of JAK2 phosphorylation begin [13, 15] [µM] | effect on apoprotein level of JAK2 ([13]; luteolin 0-20 μM) | concentration at which significant reductions of STAT3 (Ser727) phosphorylation begin [14, 15] [µM] | effect on apoprotein level of STAT3 ([14]; luteolin 0-20 μM)
Cc1ccc(S(=O)(=O)OCC(=O)Nc2ccc(C(=O)O)c(O)c2)cc1 [S31-201] | significantly reduce | significantly reduce | ~50 | ~50 | entering the center more often than IL-6 treated animals | did not find a significance | increase in sniffing compared to IL-6/MIA mice | significantly attenuated | significantly reduces | significantly reduces | significant reduction | – | – | – | – | – | – | –
COc1ccc(-c2cc(=O)c3c(O)cc(O)cc3o2)cc1O [diosmetin] | – | – | – | – | – | – | – | – | – | – | – | 26 to 43 | – | – | – | – | – | –
COc1ccc(-c2cc(=O)c3c(O)cc(O[C@@H]4O[C@H](CO[C@@H]5O[C@@H](C)[C@H](O)[C@@H](O)[C@H]5O)[C@@H](O)[C@H](O)[C@H]4O)cc3o2)cc1O [diosmin] | significantly reduce | significantly reduce | ~50 | ~50 | entering the center more often than IL-6 treated animals | – | increase in sniffing compared to IL-6/MIA mice | significantly attenuated | significantly reduces | significantly reduces | significant reduction | – | inhibit activation/phosphorylation of STAT3 | excellent safety profile and were well tolerated | – | – | – | –
O=c1cc(-c2ccc(O)c(O)c2)oc2cc(O)cc(O)c12 [luteolin, 3′,4′,5,7-tetrahydroxyflavone] | – | – | – | – | – | – | – | – | – | – | – | – | inhibit activation/phosphorylation of STAT3 | – | 10 | did not affect | 10 | did not affect
